Experimental data: patent US20160024203A1, “METHODS OF PRODUCING ANTIBODIES IN YEAST” (BRISTOL-MYERS SQUIBB COMPANY, priority 2013, published 2016)

Experiments:
[1] = tested on: P. pastoris; experiment: Effects of hydroxyurea on cell growth and antibody productivity in P. pastoris fermentation (Run 01MAY11); assay type: cell-based, Pichia pastoris; details: for Sup Titer (Normalized): anti-IL-6 antibody supernatant titer; for Sup Titer (Normalized) / WB Titer (Normalized): lots T5, T6 and T10 + hydroxyurea 2.6-2.8 g/L; for WCW: lots T5, T6 and T10 + hydroxyurea 2.6-2.8 g/L added 5 hours after feed start, triplicate bioreactors; for WB Titer (Normalized): whole broth titer = supernatant titer*(1-WCW/1000)
Protocol: The glucose and ethanol were measured by YSI 2700 (YSI Incorporated, Yellow Springs, Ohio), O2 and CO2 of the exhaust line were measured by Questor GP Process Mass Spectrometer (ABB Extrel, Pittsburgh, Pa.) and the RQ value was calculated using below Equation [1]. The wet cell weight (WCW) was measured by centrifuging one (1) milliliter (mL) fermentation broth at 13,200 rpm for 10 minutes, weighing pellet, and calculated ratio of pellets weight (g) over volume (mL). The supernatant titer (g/L) was measured by the HPLC method and the whole broth (WB) titer was then calculated by below Equation[2]. Non reduced and reducing SDS-PAGE gels are performed following standard method.
WB_Titer=Supernatant_Titer*(1−WCW/1000)
The treatment cultures were operated the same way plus adding hydroxyurea 5 hours after feed start.

[2] = tested on: suspended S. cerevisiae cells; details: 5.7 g/L hydroxyurea; cited from earlier work

For `NC(=O)NO` [Hydroxyurea], the “average whole broth titer” value ([1]; 90 hours run time, three hydroxyurea treatment lots, three control lots 59.8) was 75 normalized units, the “WCW reached/maintained by hydroxyurea treatment lots” value ([1]; after peak cell density at 30-40 hours, control lots ~400 g/Kg, FIG. 8) was roughly 450 g/kg and the “Sup Titer (Normalized)” value ([1]; age 59 h) was 83.9 ± 2.2 Normalized. The WCW ([1]; age 59 h) was 437 ± 17 g/kg, the “WB Titer (Normalized)” value ([1]; age 59 h) was 47.2 ± 1.8 Normalized and the “Sup Titer (Normalized)” value ([1]; age 90 h) was 123.3 ± 5.8 Normalized. The WCW ([1]; age 90 h) was 392 ± 20 g/kg, the “WB Titer (Normalized)” value ([1]; age 90 h) was 75.0 ± 2.7 Normalized and the “reduction of cell mass” value [2] was 50%. The “reduction of total polysaccharide content” value [2] was 65% and the “synthesis of protein and RNA” value [2] was “not adversely affected”.
